Measurements taken from PMC6804243, “Small-Molecule Inhibition of UBE2T/FANCL-Mediated Ubiquitylation in the Fanconi Anemia Pathway” (ACS Chemical Biology, 2019).
Read-outs that look alike come from different tables or passages of the source.

How the values were obtained:
[1] = target: T1, UBE2T/FANCLRING (ubiquitylation of GST-FANCLRING) (Homo sapiens, UniProt Q9NW38); experiment: biochemical; settings: for LE: ligand efficiency = 1.4(–logIC50)/HAC; for inhibition at 20 µM: read-out: Primary screen % Inhibition (20 M)
T1 sequence (Q9NW38 275-375 limits assumed): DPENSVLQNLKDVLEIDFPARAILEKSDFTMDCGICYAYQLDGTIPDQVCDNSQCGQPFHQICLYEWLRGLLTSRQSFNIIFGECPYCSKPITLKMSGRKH
Description: To identify small-molecule inhibitors of the FA pathway, we developed a high-throughput screen (HTS) compatible assay based on the FA ubiquitylation cascade (see Figure 1a, as well as Figure S1 in the Supporting Information). Given the complexity of the full FA ubiquitylation cascade, we constructed a simplified ubiquitylation reaction that would be robust for HTS purposes yet still provide many relevant protein species for small molecules to interact with. The recombinant protein assay developed used homogeneous time-resolved fluorescence (HTRF) and contained Cy5-labeled ubiquitin, the E1 enzyme UBE1, the E2 enzyme UBE2T, and the RING domain (residues 275–375) of the E3 FANCL (FANCLRING). FANCLRING was used as a surrogate substrate for ubiquitylation in the absence of the FA core and FANCD2/FANCI complexes.
Figure 1 Screening for inhibitors of the FA pathway. (a) Schematic of the HTRF ubiquitylation assay. Ubiquitylation of GST-tagged E3 (FANCLRING) by the E2 (UBE2T) places Cy5-labeled ubiquitin in close proximity to the anti-GST Tb cryptate. Excitation of the Tb cryptate donor results in FRET to the Cy5 acceptor. Simultaneous monitoring of the donor emission (620 nm) and acceptor emission (665 nm) allows for determination of the 665/620 ratio. (b) HTRF screen results showing average inhibition (n = 2) produced by compounds at 20 μM (in-house diversity library; 10 111 compounds) and 10 μM (Selleckchem epigenetic library; 119 compounds). Numbers given in parentheses represent the number of compounds per inhibition threshold.
Purified protein was concentrated using a Vivaspin-6 concentrator with a 10 kDa MW cut-off (Vivascience) and flash-frozen in small aliquots for storage at […]
Cy5 labelling of ubiquitin. To a 5 mg/mL solution of recombinant human ubiquitin (Boston Biochem) in 0.1 M NaHCO3 pH 8.3, was added a 4-fold molar excess of Cyanine5 NHS ester (Lumiprobe). The reaction was incubated at 23 °C for 4 hours in the dark. The protein was separated from unreacted dye by passage through a PD-10 desalting column (GE Healthcare) equilibrated with PBS. Purified protein was concentrated using a Vivaspin-6 concentrator with a 3 kDa MW cut-off (Vivascience) and flash-frozen in small aliquots for storage […]
Homogeneous Time-Resolved Fluorescence (HTRF) Assay. GST-FANCLRING (200 nM) was incubated with anti-GST Tb (CisBio, #61GSTTL) (2.5 ng final) at room temperature for 30 minutes in assay buffer (50 mM Tris-HCl pH 8.0, 1 mM TCEP, 5 mM MgCl2, 0.005% Tween-20). Meanwhile, 10 μL of UBE2T in assay buffer (or assay buffer alone for no enzyme controls) was incubated in a white 384-well plate (Corning) with 20 nL DMSO or compound in DMSO. After 30 minutes, the GST-RINGRING solution was added to an equal volume solution containing His-UBE1 (Boston Biochem) (16 nM), Cy5-ubiquitin (400 nM), ATP (0.8 mM) in assay buffer. 10 μL of this solution was immediately added to each well of the 384 -well plate containing UBE2T or buffer. F inal concentrations: His -UBE1 (4 nM), UBE2T (6 nM), GST -RINGRING (50 nM), Cy5-ubiquitin (100 nM), ATP (0.2 mM), compound (10 or 20 μM) in 0.1 %
(v/v) DMSO. After a 10 minute incubation at 23 °C, 5 µL of a 50 mM EDTA solution were added to each well to stop the reaction. Signal was measured at λEx 340 nm and λEm 665 nm and 620 nm using a PHERAstar FS plate reader
(BMG Labtech). A ratio was calculated as [λEm(665)/λEm(620)] × 104 for each well and this was used to determine the percent inhibition for test compounds.
Gel-based ubiquitylation assays. Assays were carried out in a total volume of 10 µL containing 20 nM His6-UBE1 (Boston Biochem), 50 nM UBE2T, 250 nM GST-E3 and 500 nM biotinylated ubiquitin (Boston Biochem) in buffer (50

[2] = system: FANCD2 foci and γH2AX in U2OS cells; experiment: High-throughput high content indirect immunofluorescence (FANCD2 foci, γH2AX); type: cell-based; settings: CU2 500 μM, HU 2.5 mM 8 h, cisplatin 10 μM 8 h; for H2AX positive nuclei, Experiment 1 / H2AX positive nuclei, Experiment 2 / H2AX positive nuclei, Experiment 3: CU1 200 μM, raw data; for H2AX positive nuclei, Totals: sum of experiments 1-3, CU1 200 μM
Method: In response to DNA damage, mUb-FANCD2 accumulates at sites of DNA lesions to form foci, promote DNA-damage sensing, activate cell-cycle checkpoints, and promote DNA repair.[23] Therefore, we employed high-throughput high-content indirect immunofluorescence studies to examine the effect of CU1 and CU2 on mUb-FANCD2 focus formation. The experimental format used was similar to the immunoblot-based experiments, excepting that, following treatment with HU (2.5 mM for 8 h) or cisplatin (10 μM for 8 h), cells were fixed, permeabilized and stained with specific FANCD2 primary and fluorescent secondary antibodies. In addition to monitoring mUb-FANCD2 foci, γH2AX was evaluated as a marker of DNA damage induction, and cell nuclei were visualized by 4′,6-diamidino-2-phenylindole (DAPI) staining. […] These observations are in accord with the immunoblot-based experiments wherein reductions in mUb-FANCD2 were observed (Figure 3a).
Figure 4 Further cell-based assays with CU1 and CU2: (a, b) Representative immunofluorescence images of U2OS cells treated with HU (2.5 mM, 8 h) or cisplatin (10 μM, 8 h) in the presence or absence of CU1 (200 μM) or CU2 (500 μM). (c) Quantification of the number of FANCD2 foci in cells treated as in panels (a) and (b). Data accumulated over three independent experiments, each consisting of three technical replicas. (d) IncuCyte analysis of U2OS cells treated with or without carboplatin (15 μM) and CU2 (250 μM). Mean calculated from three wells, four images per well. (HU = DMSO + HU, cisplatin = DMSO + cisplatin). […]
buffer (1 hour at room temperature) followed by three washes with PBST. Cells were then counterstained with DAPI (25 µg/mL) and mounted using Vectashield […]
High-throughput high content indirect immunofluorescence. U2OS cells, seeded in a 96-well plate, were treated with compound for 1 hour followed by 2.5 mM HU or 10 µM cisplatin for 8 hours. Cells were washed 3 times with wash buffer (1xPBS, 0.1% Tween-20) before being fixed in 2% paraformaldehyde (w/v) for 20 minutes at 23 °C. The cells were then washed a further 3 times in wash buffer before being stored overnight at 4°C in the final wash. Next day, the cells were permeabilized using 1xPBS, 0.5% Triton X-100 for 15 minutes at 23 °C and then washed 3 times with wash buffer before blocking with 5% BSA in 1xPBS, 0.1% Tween-20 for 30 minutes at 23 °C. After washing 3 times with wash buffer, the cells were incubated for 1 hour at 23 °C in the presence of primary antibodies (1:50 FANCD2, Santa Cruz, mouse monoclonal and 1:250 γH2AX, Cell Signalling, rabbit) in 5% BSA in wash buffer. After incubation in the presence of primary antibodies, the cells were washed 3 times with wash buffer before being incubated with secondary antibodies in 5% BSA in wash buffer for 1 hour in the dark at 23 °C. The secondary antibodies used were goat anti-mouse AlexaFluor 488 and goat anti-rabbit AlexaFluor 594 (both from Molecular Probes, Invitrogen). The cells were then washed a further 3 times with wash buffer before being stained in the presence of 2 µg/ml DAPI (Sigma D9542) in wash buffer for 10 minutes in the dark at 23 °C. After DAPI staining, the cells were washed 3 more times with wash buffer and stored in the final wash until ready for imaging.
A spinning-disk Opera PhenixTM (Perkin Elmer) microscope equipped with a 40x water immersion objective was employed to acquire 10 confocal images for each well in a single optimized focal plane comprising three fluorescence channels: 405, 488 and 568 nm for DAPI, Alexa Fluor 488 and Alexa Fluor 594, respectively. Image analysis and evaluation was done using Harmony High-Content Imaging and Analysis software. DAPI staining (405 nm) was used to segment nuclei, which were further gated for the presence of γH2AX staining

U2OS cells = experiment: IncuCyte cell proliferation assay; type: cell-based; settings: 15 μM carboplatin in DMSO-treated cells
Method: Figure 4 Further cell-based assays with CU1 and CU2: (a, b) Representative immunofluorescence images of U2OS cells treated with HU (2.5 mM, 8 h) or cisplatin (10 μM, 8 h) in the presence or absence of CU1 (200 μM) or CU2 (500 μM). (c) Quantification of the number of FANCD2 foci in cells treated as in panels (a) and (b). Data accumulated over three independent experiments, each consisting of three technical replicas. (d) IncuCyte analysis of U2OS cells treated with or without carboplatin (15 μM) and CU2 (250 μM). Mean calculated from three wells, four images per well. (HU = DMSO + HU, cisplatin = DMSO + cisplatin).
Finally, to investigate if CU1 and CU2 could sensitize cells to a more clinically relevant chemotherapeutic agent, quantitative live cell analyses were performed using the IncuCyte platform. As the FA pathway is involved in the repair of ICLs, cells were treated with the ICL-inducing chemotherapeutic drug, carboplatin. For this experiment, U2OS cells were seeded at a relatively low (<10%) density and preincubated with CU1 or CU2 for 1 h. Carboplatin was then added to the cells and images were taken every 6 h for 8 days in order to monitor growth and proliferation of the cells.
Reaction mixtures were incubated for the indicated time at 37 °C and stopped by the addition of 2X reducing SDS -PAGE sample buffer, separated on NuPAGE Novex 4 –12% Bis/Tris gradient gels (Invitrogen) and visualized by Western blotting using the indicated antibodies (Table S3).
Cell culture. U2OS cells were cultured at 37 °C in a humidified atmosphere and 5% (v/v) CO2 in Dulbecco's Modified Eagle Medium (DMEM; Sigma-Aldrich) supplemented with 10% (v/v) fetal bovine serum (FBS), 100 units/ml of penicillin, […] of streptomycin and 292 μg/mL L-glutamine.
Cell extract preparation and immunoblotting. U2OS cells were lysed in buffer containing 50 mM Tris-HCl pH 7.5, 2% SDS, 10 mM NEM, cocktail protease inhibitor (Roche) and phosphatase inhibitor cocktail followed by sonication 100 µg of extracts were boiled for 5 mins at 95 °C in 5X loading buffer and loaded onto NuPAGE Novex 4–12% Bis/Tris gradient gels
(Invitrogen), or NuPAGE Novex 3-8% Tris/Acetate gradient gels (Invitrogen) for detection of mUb-FANCD2. After separation the gels were transferred to PVDF and the membranes were blocked with Tris-buffered saline containing 0.1% (v/v) Tween-20 (TBST) and 5% (v/v) bovine serum albumin (BSA) and incubated with the indicated primary and secondary antibodies. mUb-FANCD2 intensity was quantified using Image Studio (LI-COR).
IncuCyte cell proliferation assays. 2000 U2OS cells were seeded per well in 96-well plates and treated with compounds 24 hours afterwards. After 1 hour of compound treatment, 15 µM carboplatin (Sigma-Aldrich) was added and the cells were cultured in an incubator with an IncuCyte microscopy -platform (Essen BioScience). Phase -contrast images were acquired every 6 hours for 8 days until DMSO-carboplatin treated cells reached >80% confluence. Cell proliferation was monitored as the occupied area (% confluence) of cell images over time and calculated as percentage confluence over time. Cell confluency percentages were calculated using the integrated Cell Player software and results were analysed with Prism 6 (GraphPad Software).

[3] = library stock, 10-point dose-response, read-out: Primary screen IC50
[4] = printed beside the structures in Figure S3, read-out: IC50 (Figure S3)

For `Cc1cc(C(=O)O)cc(S(=O)(=O)Nc2ccccc2-n2cccn2)c1C` [CU4], which IC50 [1, 3] is on record?
The IC50 was 61 µM.

And the LE [1]?
The LE was 0.22.

And the IC50 [1, 4]?
Its IC50 is 82.5 µM.

And the inhibition at 20 µM [1]?
The inhibition at 20 µM was 20.7%.

How did the IC50 [1, 3] turn out when `O=C(c1ccc2n[nH]nc2c1)N1CCC(COc2ccccc2)CC1` [CU6] was run?
Its IC50 is 30.8 µM.

What about the LE [1] of the same compound?
The LE was 0.26.

What about the IC50 [1, 4] of the same compound?
The IC50 was 25.8 µM.

And the inhibition at 20 µM [1]?
The inhibition at 20 µM was 37%.

Which IC50 [1, 3] does the source give for `Cc1nc2ccccc2n1CCNS(=O)(=O)c1ccc2c(c1)CC(=O)N2` [CU7] here?
Its IC50 is 64.2 µM.

And the LE [1]?
The LE was 0.24.

And the IC50 [1, 4]?
The IC50 was 35.3 µM.

What about the inhibition at 20 µM [1] of the same compound?
The inhibition at 20 µM was 39.6%.

What does the source list for `Cn1ncc(C#N)c1NC(=O)Cc1coc2cc3c(cc12)CCC3` [CU8]?
IC50 [1, 3]: 33.7 µM; LE [1]: 0.24; IC50 [1, 4]: 73.2 µM; inhibition at 20 µM [1]: 34%

For `NC(=O)NO` [HU, Hydroxyurea, reference compound], which “H2AX positive nuclei, Experiment 1” value [2] is on record?
Its value is 390.

What about the “H2AX positive nuclei, Experiment 2” value [2] of the same compound?
The value was 672.

And the “H2AX positive nuclei, Experiment 3” value [2]?
Its value is 708.

What about the “H2AX positive nuclei, Totals” value [2] of the same compound?
The value was 1770.

How did the IC50 [1, 3] turn out when `COc1ccc(CNC(=O)c2ccc(-n3nccc3C)cc2)cc1C(=O)O` [CU3] was run?
Its IC50 is 51.8 µM.

What about the LE [1] of the same compound?
The LE was 0.22.

And the IC50 [1, 4]?
The IC50 was 49.8 µM.

What about the inhibition at 20 µM [1] of the same compound?
Its inhibition at 20 µM is 20.3%.

With `N.N.O=C([O-])C1(C(=O)[O-])CCC1.[Pt+2]` [carboplatin, reference compound] as the compound, how does the proliferation rate (U2OS cells) read?
Its proliferation rate is “clear reduction in proliferation rate”.

What about the confluency (U2OS cells; after 8 days) of the same compound?
Its confluency is < 100%.

For `N.N.[Cl][Pt][Cl]` [cisplatin, reference compound], which “H2AX positive nuclei, Experiment 1” value [2] is on record?
The value was 915.

And the “H2AX positive nuclei, Experiment 2” value [2]?
Its value is 1122.

What about the “H2AX positive nuclei, Experiment 3” value [2] of the same compound?
The value was 1056.

What about the “H2AX positive nuclei, Totals” value [2] of the same compound?
Its value is 3093.
